From patent US9999619B2, “Piperidin-4-yl azetidine derivatives as JAK1 inhibitors” (Incyte Corporation, priority 2010, dated 2018) come the findings set out here.

Holding throughout (assay type): biochemical
Test [1] has as its target human JAK1 (a.a. 837-1142). Briefly: In vitro JAK kinase assay (HTRF, phosphorylation of a biotinylated peptide), JAK1. Particulars: ratio of JAK2 IC50 to JAK1 IC50, measured at 1 mM ATP. How it is done:
(§1) Compounds herein were tested for inhibitory activity of JAK targets according to the following in vitro assay described in Park et al., Analytical Biochemistry 1999, 269, 94-104. The catalytic domains of human JAK1 (a.a. 837-1142), Jak2 (a.a. 828-1132) and Jak3 (a.a. 781-1124) with an N-terminal His tag were expressed using baculovirus in insect cells and purified. The catalytic activity of JAK1, JAK2 or JAK3 was assayed by measuring the phosphorylation of a biotinylated peptide. The phosphorylated peptide was detected by homogenous time resolved fluorescence (HTRF). […] Reactions were carried out at room temperature for 1 hr and then stopped with 20 μL 45 mM EDTA, 300 nM SA-APC, 6 nM Eu-Py20 in assay buffer (Perkin Elmer, Boston, Mass.). Binding to the Europium labeled antibody took place for 40 minutes and HTRF signal was measured on a Fusion plate reader (Perkin Elmer, Boston, Mass.).

Test [2] has as its target human JAK1 (a.a. 837-1142) (Homo sapiens, UniProt P23458). The test is described as above. Particulars: measured at 1 mM ATP. How it is done:
as §1

Test [3] deals with Jak2 (a.a. 828-1132) (Homo sapiens (Human), UniProt O60674). Briefly: In vitro JAK kinase assay (HTRF, phosphorylation of a biotinylated peptide), JAK2. The settings on record: measured at 1 mM ATP. How it is done: as §1
Jak2 (a.a. 828-1132), sequence (O60674 828-1132): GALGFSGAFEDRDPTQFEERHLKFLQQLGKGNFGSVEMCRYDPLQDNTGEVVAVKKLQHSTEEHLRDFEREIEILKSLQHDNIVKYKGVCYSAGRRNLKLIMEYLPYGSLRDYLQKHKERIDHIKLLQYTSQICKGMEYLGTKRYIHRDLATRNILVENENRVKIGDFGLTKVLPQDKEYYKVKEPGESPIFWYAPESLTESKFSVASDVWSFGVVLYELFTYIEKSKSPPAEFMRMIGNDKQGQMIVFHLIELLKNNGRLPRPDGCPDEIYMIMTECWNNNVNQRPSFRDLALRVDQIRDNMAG
For orientation: TR-FRET usually uses a lanthanide donor and a delayed reading to cut background.

A value given as a limit tells only on which side of the number the result lay.

For orientation: IC50 means the point on the concentration scale where inhibition reaches its midpoint. The low end stands for greater potency in that assay, the high end for weaker potency in that assay. For the molecule `N#CCC1(n2cc(-c3ncnc4[nH]ccc34)cn2)CN(C2CCN(C(=O)c3cccc(Cl)n3)CC2)C1` [Example 13, {1-{1-[(6-chloropyridin-2-yl)carbonyl]piperidin-4-yl}-3-[4-(7H-pyrrolo[2,3-d]pyrimidin-4-yl)-1H-pyrazol-1-yl]azetidin-3-yl}acetonitrile], the “IC50 Ratio JAK2/JAK1” value in test [1] amounted to 5.3. Also, the IC50 in test [2] is not above 5 nM; in test [3], 10 to 50 nM.

As for `N#CCC1(n2cc(-c3ncnc4[nH]ccc34)cn2)CN(C2CCN(C(=O)c3cnccn3)CC2)C1` [Example 14, {1-[1-(pyrazin-2-lcarbonyl)piperidin-4-yl]-3-[4-(7H-pyrrolo[2,3-d]pyrimidin-4-yl)-1H-pyrazol-1-yl]azetidin-3-l}acetonitrile], in test [1], the “IC50 Ratio JAK2/JAK1” value was 3.2. Also, the values for the IC50 in test [2] and in test [3] were 5 to 20 nM and 10 to 50 nM, respectively.

On to `N#CCC1(n2cc(-c3ncnc4[nH]ccc34)cn2)CN(C2CCN(C(=O)c3ccsc3)CC2)C1` [Example 15, {3-[4-(7H-pyrrolo[2,3-d]pyrimidin-4-yl)-1H-pyrazol-1-yl]-1-[1-(3-thienylcarbonyl)piperidin-4-yl]azetidin-3-yl}acetonitrile], for which the “IC50 Ratio JAK2/JAK1” value in test [1] was determined as 5.3. Besides, the IC50 fell in the range of 5 to 20 nM in test [2] and 10 to 50 nM in test [3].

Regarding `N#CCC1(n2cc(-c3ncnc4[nH]ccc34)cn2)CN(C2CCN(C(=O)c3ncco3)CC2)C1` [Example 16, {1-[1-(1,3-oxazol-2-ylcarbonyl)piperidin-4-yl]-3-[4-(7H-pyrrolo[2,3-d]pyrimidin-4-yl)-1H-pyrazol-1-yl]azetidin-3-yl}acetonitrile], in test [1], the “IC50 Ratio JAK2/JAK1” value came to 2.5. For the same molecule, the half-inhibitory concentration (IC50) in test [2] fell in the range of 5 to 20 nM; in test [3], 10 to 50 nM.

Take `N#CCC1(n2cc(-c3ncnc4[nH]ccc34)cn2)CN(C2CCN(C(=O)c3cccc(Br)c3)CC2)C1` [Example 20, {1-[1-(3-bromobenzoyl)piperidin-4-yl]-3-[4-(7H-pyrrolo[2,3-d]pyrimidin-4-yl)-1H-pyrazol-1-yl]azetidin-3-yl}acetonitrile]: the “IC50 Ratio JAK2/JAK1” value in test [1] was 4.2. For the same molecule, the IC50 was not above 5 nM in test [2] and not above 10 nM in test [3].

As for `N#CCC1(n2cc(-c3ncnc4[nH]ccc34)cn2)CN(C2CCN(C(=O)c3cccc(OC(F)(F)F)c3)CC2)C1` [Example 21, (3-[4-(7H-pyrrolo[2,3-d]pyrimidin-4-yl)-1H-pyrazol-1-yl]-1-{1-[3-(trifluoromethoxy)benzoyl]piperidin-4-yl}azetidin-3-yl)acetonitrile], the “IC50 Ratio JAK2/JAK1” value in test [1] was 3.2. Further, the IC50 in test [2] was in the range of 5 to 20 nM; in test [3], 10 to 50 nM.

In the case of `N#CCC1(n2cc(-c3ncnc4[nH]ccc34)cn2)CN(C2CCN(C(=O)c3cccc(C(F)(F)F)c3)CC2)C1` [Example 22, (3-[4-(7H-pyrrolo[2,3-d]pyrimidin-4-yl)-1H-pyrazol-1-yl]-1-{1-[3-(trifluoromethyl)benzoyl]piperidin-4-yl}azetidin-3-yl)acetonitrile], in test [1], the “IC50 Ratio JAK2/JAK1” value worked out at 3.2. For the same molecule, the IC50 in test [2] is 5 to 20 nM; in test [3], 10 to 50 nM.

`N#CCC1(n2cc(-c3ncnc4[nH]ccc34)cn2)CN(C2CCN(C(=O)c3cc(F)cc(C(F)(F)F)c3)CC2)C1` [Example 23, {1-{1-[3-fluoro-5-(trifluoromethyl)benzoyl]piperidin-4-yl}-3-[4-(7H-pyrrolo[2,3-d]pyrimidin-4-yl)-1H-pyrazol-1-yl]azetidin-3-yl}acetonitrile]: the “IC50 Ratio JAK2/JAK1” value in test [1] is recorded as 6.7. The IC50 is not above 5 nM in test [2] and 10 to 50 nM in test [3].

On to `N#CCC1(n2cc(-c3ncnc4[nH]ccc34)cn2)CN(C2CCN(C(=O)c3cc(Cl)cc(Cl)c3)CC2)C1` [Example 24, {1-[1-(3,5-dichlorobenzoyl)piperidin-4-yl]-3-[4-(7H-pyrrolo[2,3-d]pyrimidin-4-yl)-1H-pyrazol-1-yl]azetidin-3-yl}acetonitrile], for which the “IC50 Ratio JAK2/JAK1” value in test [1] is on record as 6.6. Moreover, the IC50 was not above 5 nM in test [2] and not above 10 nM in test [3].

With `N#CCC1(n2cc(-c3ncnc4[nH]ccc34)cn2)CN(C2CCN(C(=O)c3cccc(F)c3)CC2)C1` [Example 25, {1-[1-(3-fluorobenzoyl)piperidin-4-yl]-3-[4-(7H-pyrrolo[2,3-d]pyrimidin-4-yl)-1H-pyrazol-1-yl]azetidin-3-yl}acetonitrile], the “IC50 Ratio JAK2/JAK1” value in test [1] stood at 5.8. For the same molecule, the results for the IC50 in test [2] and in test [3] were not above 5 nM and 10 to 50 nM, respectively.

Regarding `COc1cc(C(=O)N2CCC(N3CC(CC#N)(n4cc(-c5ncnc6[nH]ccc56)cn4)C3)CC2)ccc1F` [Example 26, {1-[1-(4-fluoro-3-methoxybenzoyl)piperidin-4-yl]-3-[4-(7H-pyrrolo[2,3-d]pyrimidin-4-yl)-1H-pyrazol-1-yl]azetidin-3-yl}acetonitrile], the “IC50 Ratio JAK2/JAK1” value in test [1] came out at 3.3. Further, the results for the IC50 in test [2] and in test [3] were not above 5 nM and not above 10 nM, respectively.

Regarding `COc1ccc(F)c(C(=O)N2CCC(N3CC(CC#N)(n4cc(-c5ncnc6[nH]ccc56)cn4)C3)CC2)c1` [Example 27, {1-[1-(2-fluoro-5-methoxybenzoyl)piperidin-4-yl]-3-[4-(7H-pyrrolo[2,3-d]pyrimidin-4-yl)-1H-pyrazol-1-yl]azetidin-3-yl}acetonitrile], in test [1], the “IC50 Ratio JAK2/JAK1” value turned out to be 5.1. Besides, the IC50 in test [2] is 5 to 20 nM; in test [3] it was 50 to 100 nM.

Regarding `N#CCC1(n2cc(-c3ncnc4[nH]ccc34)cn2)CN(C2CCN(C(=O)c3cc(F)cc(Cl)c3)CC2)C1` [Example 28, {1-[1-(3-chloro-5-fluorobenzoyl)piperidin-4-yl]-3-[4-(7H-pyrrolo[2,3-d]pyrimidin-4-yl)-1H-pyrazol-1-yl]azetidin-3-yl}acetonitrile], the “IC50 Ratio JAK2/JAK1” value in test [1] is given as 8.5. The IC50 is not above 5 nM in test [2] and not above 10 nM in test [3].

Take `N#CCC1(n2cc(-c3ncnc4[nH]ccc34)cn2)CN(C2CCN(C(=O)c3cc(F)cc(Br)c3)CC2)C1` [Example 29, {1-[1-(3-bromo-5-fluorobenzoyl)piperidin-4-yl]-3-[4-(7H-pyrrolo[2,3-d]pyrimidin-4-yl)-1H-pyrazol-1-yl]azetidin-3-yl}acetonitrile]: the “IC50 Ratio JAK2/JAK1” value in test [1] worked out at 7.2. Moreover, the IC50 in test [2] was not above 5 nM; in test [3], not above 10 nM.

For the molecule `N#CCC1(n2cc(-c3ncnc4[nH]ccc34)cn2)CN(C2CCN(C(=O)c3cc(Cl)sc3Cl)CC2)C1` [Example 30, {1-{1-[(2,5-dichloro-3-thienyl)carbonyl]piperidin-4-yl}-3-[4-(7H-pyrrolo[2,3-d]pyrimidin-4-yl)-1H-pyrazol-1-yl]azetidin-3-yl}acetonitrile], the “IC50 Ratio JAK2/JAK1” value in test [1] is reported as 2.8. The IC50 in test [2] was not above 5 nM; in test [3], not above 10 nM.

In the case of `COc1cccc(C(=O)N2CCC(N3CC(CC#N)(n4cc(-c5ncnc6[nH]ccc56)cn4)C3)CC2)c1` [Example 31, {1-[1-(3-methoxybenzoyl)piperidin-4-yl]-3-[4-(7H-pyrrolo[2,3-d]pyrimidin-4-yl)-1H-pyrazol-1-yl]azetidin-3-yl}acetonitrile], the “IC50 Ratio JAK2/JAK1” value in test [1] was found to be 1.9. Also, the IC50 is not above 5 nM in test [2] and not above 10 nM in test [3].

On to `COc1c(F)c(F)cc(C(=O)N2CCC(N3CC(CC#N)(n4cc(-c5ncnc6[nH]ccc56)cn4)C3)CC2)c1F` [Example 32, {3-[4-(7H-pyrrolo[2,3-d]pyrimidin-4-yl)-1H-pyrazol-1-yl]-1-[1-(2,4,5-trifluoro-3-methoxybenzoyl)piperidin-4-yl]azetidin-3-yl}acetonitrile], for which the “IC50 Ratio JAK2/JAK1” value in test [1] is on record as 4.4. For the same molecule, the values for the IC50 in test [2] and in test [3] were not above 5 nM and 10 to 50 nM, respectively.

Regarding `COc1cc(OC)cc(C(=O)N2CCC(N3CC(CC#N)(n4cc(-c5ncnc6[nH]ccc56)cn4)C3)CC2)c1` [Example 33, {1-[1-(3,5-dimethoxybenzoyl)piperidin-4-yl]-3-[4-(7H-pyrrolo[2,3-d]pyrimidin-4-yl)-1H-pyrazol-1-yl]azetidin-3-yl}acetonitrile], the “IC50 Ratio JAK2/JAK1” value in test [1] is recorded as 0.5. The values for the IC50 in test [2] and in test [3] were not above 5 nM and not above 10 nM, respectively.

`N#CCC1(n2cc(-c3ncnc4[nH]ccc34)cn2)CN(C2CCN(C(=O)c3ccc(F)c(Cl)c3)CC2)C1` [Example 34, {1-[1-(3-chloro-4-fluorobenzoyl)piperidin-4-yl]-3-[4-(7H-pyrrolo[2,3-d]pyrimidin-4-yl)-1H-pyrazol-1-yl]azetidin-3-yl}acetonitrile]: the “IC50 Ratio JAK2/JAK1” value in test [1] worked out at 6.0. For the same molecule, the values for the IC50 in test [2] and in test [3] were 5 to 20 nM and 10 to 50 nM, respectively.

On to `N#CCC1(n2cc(-c3ncnc4[nH]ccc34)cn2)CN(C2CCN(C(=O)c3ccc(F)c(F)c3)CC2)C1` [Example 35, {1-[1-(3,4-difluorobenzoyl)piperidin-4-yl]-3-[4-(7H-pyrrolo[2,3-d]pyrimidin-4-yl)-1H-pyrazol-1-yl]azetidin-3-yl}acetonitrile], for which, in test [1], the “IC50 Ratio JAK2/JAK1” value is 6.9. Further, the IC50 is not above 5 nM in test [2] and 10 to 50 nM in test [3].

Take `COc1cc(F)cc(C(=O)N2CCC(N3CC(CC#N)(n4cc(-c5ncnc6[nH]ccc56)cn4)C3)CC2)c1` [Example 36, {1-[1-(3-fluoro-5-methoxybenzoyl)piperidin-4-yl]-3-[4-(7H-pyrrolo[2,3-d]pyrimidin-4-yl)-1H-pyrazol-1-yl]azetidin-3-yl}acetonitrile]: the “IC50 Ratio JAK2/JAK1” value in test [1] is listed as 2.3. Also, the values for the IC50 in test [2] and in test [3] were not above 5 nM and not above 10 nM, respectively.
